Source: patent US20240317758A1 (Halia Therapeutics, Inc., priority 2021, published 2024)

The compounds below were run against T1, full-length recombinant human NEK7 (Homo sapiens, UniProt Q8TDX7) (assay: NEK7 enzymatic assay). Conditions: recombinant human NEK7, casein substrate, radiolabelled ATP.
T1 construct: full-length recombinant human NEK7; GST (N); purchased SignalChem NO9-10G; host or cells: Sf9 insect cells (baculovirus)
T1 sequence (Q8TDX7 whole entry): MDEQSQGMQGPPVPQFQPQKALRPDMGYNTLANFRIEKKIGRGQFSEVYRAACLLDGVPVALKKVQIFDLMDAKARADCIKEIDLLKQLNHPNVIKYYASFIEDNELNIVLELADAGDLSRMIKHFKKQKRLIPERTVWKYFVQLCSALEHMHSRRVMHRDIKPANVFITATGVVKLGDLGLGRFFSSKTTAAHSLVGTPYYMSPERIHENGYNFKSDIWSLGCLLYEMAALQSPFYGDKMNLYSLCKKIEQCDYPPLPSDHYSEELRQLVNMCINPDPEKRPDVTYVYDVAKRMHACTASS
Assay type: biochemical
Description: Casein substrate (from bovine milk, hydrolyzed and partially dephosphorylated mixture of α, β and κ caseins, obtained from Sigma Aldrich, catalogue #C4765, diluted in distilled water to a final concentration of 1 mg/mL) and full-length recombinant human NEK7 (expressed by baculovirus in Sf9 insect cells using a N-terminal GST tag, obtained from SignalChem, catalogue #NO9-10G, 0.1 μg/μL) were mixed in assay buffer (20 mM Hepes pH 7.5, 10 mM MgCl2, 1 mM EGTA, 0.02% Brij35, 0.02 mg/ml BSA, 0.1 mM Na3VO4, 2 mM DTT, 1% DMSO). Compounds of interest (serial 3-fold dilution in DMSO from 10 μM to 0.5 nM) or vehicle (1% DMSO) were dispensed into the kinase reaction mixture by Acoustic technology (Echo550; nanoliter range). After incubation at room temperature for 20 minutes, the kinase reaction was initiated by addition of [^33P]-ATP (specific activity 10 μCi/μl) and the mixture was incubated at room temperature for 2 hours. The reaction was then stopped by spotting the reaction mixture on strips of phosphocellulose P81 paper. Following washing, the radioactivity of the P81 paper was measured and kinase activity data were expressed as the percent remaining kinase activity in test samples compared to vehicle reactions. IC50 values and curve fits were obtained using Prism (GraphPad Software).
Casein substrate (from bovine milk, hydrolyzed and partially dephosphorylated mixture of α, β and κ caseins, obtained from Sigma Aldrich, catalogue #C4765, diluted in distilled water to a final concentration of 1 mg/mL, assay concentration 20 μM) and full-length recombinant human Nek7 (expressed by baculovirus in Sf9 insect cells using a N-terminal GST tag, obtained from SignalChem, catalogue #NO9-10G, 0.1 μg/μL, assay concentration 70 nM) were mixed in assay buffer (20 mM Hepes pH 7.5, 10 mM MgCl2, 1 mM EGTA, 0.02% Brij35, 0.02 mg/ml BSA, 0.1 mM […], 2 mM DTT, 1% DMSO). Compounds of interest (in DMSO, serial 3-fold dilution from 10 μM to 0.5 nM) or control (1% DMSO) were dispensed into the kinase reaction mixture by Acoustic technology (Echo550; nanoliter range). After incubation at room temperature for 20 minutes, the kinase reaction was initiated by addition of [^32P]-ATP (Specific activity 10 μCi/μl) and the mixture was incubated at room temperature for 2 hours. The reaction was then stopped by spotting the reaction mixture on strips of phosphocellulose P81 paper. Following washing, the radioactivity of the P81 paper was measured and kinase activity data were expressed as the percent remaining kinase activity in test samples compared to vehicle (dimethyl sulfoxide) reactions. IC50 values and curve fits were obtained using Prism (GraphPad Software).
`CN1CCC(Oc2ccc(NC(=O)Nc3ccc(-c4cn(C5CC5)c5ncnc(N)c45)cc3F)cc2C(F)(F)F)C(F)C1` (single isomer, unassigned) [Example I-89, 1-(4-(4-amino-7-cyclopropyl-7H-pyrrolo[2,3-d]pyrimidin-5-yl)-2-fluorophenyl)-3-(4-((3-fluoro-1-methylpiperidin-4-yl)oxy)-3-(trifluoromethyl)phenyl)urea] was tested, and the IC50 was 100 to 500 nM. `Nc1ncnc2c1c(-c1ccc(NC(=O)Nc3ccc(OC4CCN(C5COC5)CC4F)c(C(F)(F)F)c3)c(F)c1)cn2C1CC1` (single isomer, unassigned) [Example I-91, 1-(4-(4-amino-7-cyclopropyl-7H-pyrrolo[2,3-d]pyrimidin-5-yl)-2-fluorophenyl)-3-(4-((3-fluoro-1-(oxetan-3-yl)piperidin-4-yl)oxy)-3-(trifluoromethyl)phenyl)urea] showed an IC50 of 100 to 500 nM. For `Nc1ncnc2c1c(-c1ccc(NC(=O)Nc3ccc(OC4CCN(C5COC5)CC4F)c(C(F)(F)F)c3)c(F)c1)cn2C1CC1` (single isomer, unassigned) [Example I-92, 1-(4-(4-amino-7-cyclopropyl-7H-pyrrolo[2,3-d]pyrimidin-5-yl)-2-fluorophenyl)-3-(4-((3-fluoro-1-(oxetan-3-yl)piperidin-4-yl)oxy)-3-(trifluoromethyl)phenyl)urea], the IC50 was 100 to 500 nM. For `Nc1ncnc2c1c(-c1ccc(NC(=O)Nc3ccc(CN4CCOCC4)cc3F)c(F)c1)cn2C1CC1` [Example I-1, 1-(4-(4-amino-7-cyclopropyl-7H-pyrrolo[2,3-d]pyrimidin-5-yl)-2-fluorophenyl)-3-(2-fluoro-4-(morpholinomethyl)phenyl)urea], the IC50 was > 2000 nM. In the case of `Nc1ncnc2c1c(-c1ccc(NC(=O)Nc3ccc(CN4CCOCC4)c(F)c3)c(F)c1)cn2C1CC1` [Example I-2, 1-(4-(4-amino-7-cyclopropyl-7H-pyrrolo[2,3-d]pyrimidin-5-yl)-2-fluorophenyl)-3-(3-fluoro-4-(morpholinomethyl)phenyl)urea], the IC50 is reported as > 2000 nM. `CN1CC2CCC(C1)N2Cc1ccc(NC(=O)Nc2ccc(-c3cn(C4CC4)c4ncnc(N)c34)cc2F)cc1C(F)(F)F` [Example I-4, 1-(4-(4-amino-7-cyclopropyl-7H-pyrrolo[2,3-d]pyrimidin-5-yl)-2-fluorophenyl)-3-(4-((3-methyl-3,8-diazabicyclo[3.2.1]octan-8-yl)methyl)-3-(trifluoromethyl)phenyl)urea] gave an IC50 of 100 to 500 nM. In the case of `CN1C[C@@H]2CN(Cc3ccc(NC(=O)Nc4ccc(-c5cn(C6CC6)c6ncnc(N)c56)cc4F)cc3C(F)(F)F)C[C@@H]2C1` [Example I-5, 1-(4-(4-amino-7-cyclopropyl-7H-pyrrolo[2,3-d]pyrimidin-5-yl)-2-fluorophenyl)-3-(4-(((3aR,6aS)-5-methylhexahydropyrrolo[3,4-c]pyrrol-2(1H)-yl)methyl)-3-(trifluoromethyl)phenyl)urea], the IC50 is reported as 100 to 500 nM. In the case of `CN1CC2(C1)CN(Cc1ccc(NC(=O)Nc3ccc(-c4cn(C5CC5)c5ncnc(N)c45)cc3F)cc1C(F)(F)F)C2` [Example I-7, 1-(4-(4-amino-7-cyclopropyl-7H-pyrrolo[2,3-d]pyrimidin-5-yl)-2-fluorophenyl)-3-(4-((6-methyl-2,6-diazaspiro[3.3]heptan-2-yl)methyl)-3-(trifluoromethyl)phenyl)urea], the IC50 is reported as > 2000 nM. `CN1CCN(Cc2ccc(NC(=O)Nc3ccc(-c4cn(C5CC5)c5ncnc(N)c45)cc3F)cc2C(F)(F)F)C2(CC2)C1` [Example I-8, 1-(4-(4-amino-7-cyclopropyl-7H-pyrrolo[2,3-d]pyrimidin-5-yl)-2-fluorophenyl)-3-(4-((7-methyl-4,7-diazaspiro[2.5]octan-4-yl)methyl)-3-(trifluoromethyl)phenyl)urea] showed an IC50 of 100 to 500 nM. Compound `CN1CC2CCC1CN2Cc1ccc(NC(=O)Nc2ccc(-c3cn(C4CC4)c4ncnc(N)c34)cc2F)cc1C(F)(F)F` (stereo not drawn) [Example I-9, 1-(4-(4-amino-7-cyclopropyl-7H-pyrrolo[2,3-d]pyrimidin-5-yl)-2-fluorophenyl)-3-(4-((5-methyl-2,5-diazabicyclo[2.2.2]octan-2-yl)methyl)-3-(trifluoromethyl)phenyl)urea] has an IC50 of 100 to 500 nM. In the case of `CN1CCC(Cc2ccc(NC(=O)Nc3ccc(-c4cn(C5CC5)c5ncnc(N)c45)cc3F)cc2C(F)(F)F)CC1` [Example I-11, 1-(4-(4-amino-7-cyclopropyl-7H-pyrrolo[2,3-d]pyrimidin-5-yl)-2-fluorophenyl)-3-(4-((1-methylpiperidin-4-yl)methyl)-3-(trifluoromethyl)phenyl)urea], the IC50 is reported as > 2000 nM. For `CN1CCN(Cc2c(F)cc(NC(=O)Nc3ccc(-c4cn(C5CC5)c5ncnc(N)c45)cc3F)cc2C(F)(F)F)CC1` [Example I-12, 1-(4-(4-amino-7-cyclopropyl-7H-pyrrolo[2,3-d]pyrimidin-5-yl)-2-fluorophenyl)-3-(3-fluoro-4-((4-methylpiperazin-1-yl)methyl)-5-(trifluoromethyl)phenyl)urea], the IC50 was < 100 nM. For `CN1CCN(Cc2ccc(NC(=O)Nc3ccc(-c4cn(C5CC5)c5ncnc(N)c45)cn3)cc2C(F)(F)F)CC1` [Example I-14, 1-(5-(4-amino-7-cyclopropyl-7H-pyrrolo[2,3-d]pyrimidin-5-yl)pyridin-2-yl)-3-(4-((4-methylpiperazin-1-yl)methyl)-3-(trifluoromethyl)phenyl)urea], the IC50 was < 100 nM. For `CN1CCN(Cc2ccc(NC(=O)Nc3ccc(-c4cn(C5CCC5)c5ncnc(N)c45)cc3F)cc2C(F)(F)F)CC1` [Example I-19, 1-(4-(4-amino-7-cyclobutyl-7H-pyrrolo[2,3-d]pyrimidin-5-yl)-2-fluorophenyl)-3-(4-((4-methylpiperazin-1-yl)methyl)-3-(trifluoromethyl)phenyl)urea], the IC50 was 100 to 500 nM. `Cc1cc(NC(=O)Nc2ccc(-c3nn(C(C)C)c4ncnc(N)c34)cc2)ccc1N1CCOCC1` [Example I-22, 1-(4-(4-amino-1-isopropyl-1H-pyrazolo[3,4-d]pyrimidin-3-yl)phenyl)-3-(3-methyl-4-morpholinophenyl)urea] showed an IC50 of 100 to 500 nM. In the case of `Cc1cc(NC(=O)Nc2ccc(-c3nn(C4COC4)c4ncnc(N)c34)cc2)ccc1N1CCOCC1` [Example I-23, 1-(4-(4-amino-1-(oxetan-3-yl)-1H-pyrazolo[3,4-d]pyrimidin-3-yl)phenyl)-3-(3-methyl-4-morpholinophenyl)urea], the IC50 is reported as > 2000 nM. With `CN1CCN(Cc2ccc(NC(=O)Nc3ccc(-c4nn(C5CC5)c5ncnc(N)c45)cn3)cc2C(F)(F)F)CC1` [Example I-30, 1-(5-(4-amino-1-cyclopropyl-1H-pyrazolo[3,4-d]pyrimidin-3-yl)pyridin-2-yl)-3-(4-((4-methylpiperazin-1-yl)methyl)-3-(trifluoromethyl)phenyl)urea] the IC50 was 100 to 500 nM. Compound `CN1CCN(Cc2ccc(NC(=O)Nc3ccc(-c4cn(C5CC5)c5ncnc(N)c45)cc3Cl)cc2C(F)(F)F)CC1` [Example I-35, 1-(4-(4-amino-7-cyclopropyl-7H-pyrrolo[2,3-d]pyrimidin-5-yl)-2-chlorophenyl)-3-(4-((4-methylpiperazin-1-yl)methyl)-3-(trifluoromethyl)phenyl)urea] has an IC50 of 100 to 500 nM. With `CN1CCN(Cc2ccc(NC(=O)Nc3ccc(-c4cn(C5CC5)c5ncnc(N)c45)cc3F)cc2Cl)CC1` [Example I-37, 1-(4-(4-amino-7-cyclopropyl-7H-pyrrolo[2,3-d]pyrimidin-5-yl)-2-fluorophenyl)-3-(3-chloro-4-((4-methylpiperazin-1-yl)methyl)phenyl)urea] the IC50 was 100 to 500 nM. `Cc1cc(NC(=O)Nc2ccc(-c3cn(C4CC4)c4ncnc(N)c34)cc2F)ccc1CN1CCN(C)CC1` [Example I-39, 1-(4-(4-amino-7-cyclopropyl-7H-pyrrolo[2,3-d]pyrimidin-5-yl)-2-fluorophenyl)-3-(3-methyl-4-((4-methylpiperazin-1-yl)methyl)phenyl)urea] was tested, and the IC50 was > 2000 nM. `CCN1CCN(Cc2ccc(NC(=O)Nc3ccc(-c4cn(C5CC5)c5ncnc(N)c45)cc3F)cc2C(F)(F)F)CC1` [Example I-41, 1-(4-(4-amino-7-cyclopropyl-7H-pyrrolo[2,3-d]pyrimidin-5-yl)-2-fluorophenyl)-3-(4-((4-ethylpiperazin-1-yl)methyl)-3-(trifluoromethyl)phenyl)urea] was tested, and the IC50 was < 100 nM.
